{
  "source": "patent US12409174B2",
  "about": "“Combination of zibotentan and dapagliflozin for the treatment of endothelin related diseases” (priority 2020, dated 2025)",
  "key": {"[1]": {"tested_on": "patients with CKD with and without type 2 diabetes", "settings": "dapagliflozin 10 mg", "protocol": "The effect of dapagliflozin on albuminuria was investigated in patients with CKD with and without type 2 diabetes. In this analysis from the Phase 3 DAPA CKD trial, the efficacy of dapagliflozin was assessed to determine whether treatment with dapagliflozin reduces the level of albuminuria in patients with CKD.\nIn the trial, 4304 patients with estimated glomerular filtration rate 25-75 mL/min/1·73 m2 and urinary UACR 200-5000 mg/g were randomized to dapagliflozin (10 mg) or placebo. Change in albuminuria was assessed as the mean change in log-transformed UACR from baseline to end of study. Regression in UACR stage, defined as a transition from macroalbuminuria (≥300 mg/g) to micro- or normoalbuminuria (<300 mg/g), and progression in UACR stage, defined as a transition from <3000 mg/g to ≥3000 mg/g, were additional endpoints."}, "[2]": {"tested_on": "male Wistar rats on 4% salt diet", "assay": "Effect of zibotentan on plasma Na, K, glucose and urea, Experiment 1", "type": "in vivo", "settings": "Exp 1", "protocol": "(§1) In the first experiment (Experiment 1), the effect of zibotentan on haematocrit (Hct) concentration was determined when zibotentan was administered peroral (p.o) QD for 14 days. […] Animals were weighed daily prior to dosing throughout the experiment. Blood samples (20 μL) for bioanalysis were taken at 4 and 24 hr after the first dose via the tail vein from conscious animals and 24 hr after the last dose via retroorbital route from anesthetized animals. Blood samples were collected via tail vein (100 μL) for Hct concentration and haemoglobin (Hb) measurements, on day 7 and on day 14, 1-2 hr after dosing. Twenty-four hour urine was collected for the measurement of urinary glucose, urine volume and electrolytes between doses nine and ten. Animals were terminated 24 hr after the last dose. On the day of termination, animals were anesthetized using 5% isoflurane, and blood was collected via the retroorbital route (in heparin-coated microvette, Sarsted) and centrifuged at 3,500 rpm at 4° C. for 10 minutes, plasma was collected and stored at −80° C. degrees prior to analysis. Animals were then euthanized by the removal of the heart. Both the heart and the kidneys were extracted and weighed. From the right kidney, a 4 mm thick slice of tissue was collected and fixed in 4% formaldehyde for subsequent histological analysis and a piece of cortical kidney tissue and heart tissue was collected for gene expression analysis.\nPlasma and Urine Albumin, Creatinine, Glucose, Urea, Potassium and Sodium levels were analyzed using an ABX Pentra 400 instrument (Horiba Medical, Irvine, California, USA) according to the manufacturers protocol.\n(§2) Significance was set at p<0.05."}, "[3]": {"tested_on": "male Wistar rats on 4% salt diet", "assay": "Effect of zibotentan on kidney and heart weight, Experiment 1", "type": "in vivo", "protocol": "as §1, §2"}, "[4]": {"tested_on": "male Wistar rats on 4% salt diet", "assay": "Effect of zibotentan on Hb, Experiment 1", "type": "in vivo", "settings": "Exp 1", "protocol": "as §1\nFor Hct and Hb analysis, 100 μl of blood from rat's tail vein was collected and measured using CG8 cartridges analysed with an iSTAT instrument (Abbott Point of Care Inc, Abbot Park, IL, USA).\nas §2"}, "[5]": {"assay": "Zibotentan blood concentrations, Experiment 1", "type": "in vivo, male Wistar rats", "settings": "male, Wistar, rat, whole blood, oral, Exp 1; for concentration at 4 h: 4 hr post first dose", "protocol": "as §1\nA volume of 20 μL whole blood was precipitated with 150 μL acetonitrile containing internal standard and quickly vortexed, followed by a 20 min centrifugation at 3220 g and 4° C. […] Zibotentan samples were further diluted twice and three times at a 1:10 ratio with 33% acetonitrile, to ensure all diluted samples were detectible within the calibration range.\nSample concentrations were determined against matrix-spiked calibration standards over a range of 0.010 μM-10.0 μM for dapagliflozin and 0.75 μM-376 μM for zibotentan, applying weighted linear regression (1/X^2) using Waters TargetLynx software version XS V4.2 SCN986. […] Analytical bias was <15% over the concentration range for both analytes.\nSeparation was achieved using the following elution gradient: 0 min to 1.5 min, 4% B ramping up to 95% B; 1.5 min to 2.3 min, kept at 95% B; 2.3 min to 2.4 min, 95% B to 4% B and kept at 4% B until 2.7 min. The flow rate was 0.7 mL/min."}, "[6]": {"settings": "Exp 1, Zibo 30 mg/kg p.o. QD 14 days"}, "[7]": {"settings": "Exp 1, Zibo 100 mg/kg p.o. QD 14 days"}, "[8]": {"settings": "Exp 1, Zibo 300 mg/kg p.o. QD 14 days"}, "[9]": {"settings": "Exp 1, zibotentan 100 mg/kg, 14 days"}},
  "note": "Like-named read-outs stand apart in the source and are kept apart here.",
  "data": [
    {"compound": "CCOc1ccc(Cc2cc([C@@H]3O[C@H](CO)[C@@H](O)[C@H](O)[C@H]3O)ccc2Cl)cc1", "note": "[Dapa, (1S)-1,5-anhydro-1-{4-chloro-3-[(4-ethoxyphenyl)methyl]phenyl}-D-glucitol]", "values": [
      {"measurement": "Progression in UACR stage, hazard ratio", "setting": "[1]; 3820 patients with UACR<3000 mg/g at baseline, 95% CI 0.32-0.52", "value": 0.41},
      {"measurement": "Regression in UACR stage, hazard ratio", "setting": "[1]; 3860 patients with UACR≥300 mg/g at baseline, 95% CI 1.60-2.05", "value": 1.81},
      {"measurement": "UACR reduction compared to placebo", "setting": "[1]; CKD patients with and without type 2 diabetes, baseline to end of study, 95% CI 25.2-33.1%", "value": 29.3, "unit": "%"},
      {"measurement": "UACR reduction compared to placebo", "setting": "[1]; CKD patients with type 2 diabetes, 95% CI 30.6-39.4%", "value": 35.1, "unit": "%"},
      {"measurement": "UACR reduction compared to placebo", "setting": "[1]; CKD patients without type 2 diabetes, 95% CI 5.9-22.9%", "value": 14.8, "unit": "%"}
    ]},
    {"compound": "COc1nc(C)cnc1NS(=O)(=O)c1cccnc1-c1ccc(-c2nnco2)cc1", "note": "[Zibo, N-(3-methoxy-5-methylpyrazin-2-yl)-2-[4-(1,3,4-oxadiazol-2-yl)phenyl]pyridine-3-sulfonamide]", "values": [
      {"measurement": "Plasma Glucose", "setting": "[2]; Zibo 30 mg/kg p.o. QD 14 days", "value": "9.76 ± 0.28", "unit": "mmol/L"},
      {"measurement": "Plasma K", "setting": "[2]; Zibo 30 mg/kg p.o. QD 14 days", "value": "4.50 ± 0.06", "unit": "mmol/L"},
      {"measurement": "Plasma Na", "setting": "[2]; Zibo 30 mg/kg p.o. QD 14 days", "value": "137.0 ± 0.96", "unit": "mmol/L"},
      {"measurement": "Plasma Urea", "setting": "[2]; Zibo 30 mg/kg p.o. QD 14 days", "value": "4.64 ± 0.20", "unit": "mmol/L"},
      {"measurement": "Plasma Glucose", "setting": "[2]; Zibo 100 mg/kg p.o. QD 14 days", "value": "9.65 ± 0.30", "unit": "mmol/L"},
      {"measurement": "Plasma K", "setting": "[2]; Zibo 100 mg/kg p.o. QD 14 days", "value": "4.52 ± 0.06", "unit": "mmol/L"},
      {"measurement": "Plasma Na", "setting": "[2]; Zibo 100 mg/kg p.o. QD 14 days", "value": "137.2 ± 0.97", "unit": "mmol/L"},
      {"measurement": "Plasma Urea", "setting": "[2]; Zibo 100 mg/kg p.o. QD 14 days", "value": "4.77 ± 0.25", "unit": "mmol/L"},
      {"measurement": "Plasma Glucose", "setting": "[2]; Zibo 300 mg/kg p.o. QD 14 days", "value": "9.34 ± 0.13", "unit": "mmol/L"},
      {"measurement": "Plasma K", "setting": "[2]; Zibo 300 mg/kg p.o. QD 14 days", "value": "4.76 ± 0.09", "unit": "mmol/L"},
      {"measurement": "Plasma Na", "setting": "[2]; Zibo 300 mg/kg p.o. QD 14 days", "value": "139.4 ± 0.86", "unit": "mmol/L"},
      {"measurement": "Plasma Urea", "setting": "[2]; Zibo 300 mg/kg p.o. QD 14 days", "value": "4.94 ± 0.39", "unit": "mmol/L"},
      {"measurement": "Level of Na, K, glucose and urea in the plasma compared to vehicle", "setting": "[2]; different doses of zibotentan", "value": "no change"},
      {"measurement": "Kidney/tibia length", "setting": "[3]", "value": "54.00 ± 0.80", "unit": "mg/mm"},
      {"measurement": "Heart weight", "setting": "[3]; [6]", "value": "1.00 ± 0.02", "unit": "g"},
      {"measurement": "Heart/tibia length", "setting": "[3]; [6]", "value": "25.00 ± 0.47", "unit": "mg/mm"},
      {"measurement": "Kidney weight", "setting": "[3]; [6]", "value": "2.13 ± 0.04", "unit": "g"},
      {"measurement": "Heart weight", "setting": "[3]; [7]", "value": "1.05 ± 0.01", "unit": "g"},
      {"measurement": "Heart/tibia length", "setting": "[3]; [7]", "value": "27.00 ± 0.37", "unit": "mg/mm"},
      {"measurement": "Kidney weight", "setting": "[3]; [7]", "value": "2.16 ± 0.05", "unit": "g"},
      {"measurement": "Kidney/tibia length", "setting": "[3]; [7]", "value": "55.0 ± 1.65", "unit": "mg/mm"},
      {"measurement": "Heart weight", "setting": "[3]; [8]", "value": "0.98 ± 0.00", "unit": "g"},
      {"measurement": "Heart/tibia length", "setting": "[3]; [8]", "value": "25.00 ± 0.24", "unit": "mg/mm"},
      {"measurement": "Kidney/tibia length", "setting": "[3]; [8]", "value": "57.0 ± 1.39", "unit": "mg/mm"},
      {"measurement": "Heart weight compared to vehicle", "setting": "[3]; [9]", "value": "increase"},
      {"measurement": "Heart weight increase after normalizing with tibia length", "setting": "[3]; [9]", "value": "not statistically significant"},
      {"measurement": "Kidney weight with or without normalizing with tibia length compared to vehicle", "setting": "[3]; Exp 1, zibotentan 300 mg/kg, 14 days", "value": "increase"},
      {"measurement": "Day 7 Hb", "setting": "[4]; Zibo 30 mg/kg p.o. QD", "value": 146.4, "unit": "g/L"},
      {"measurement": "Day 14 Hb", "setting": "[4]; Zibo 30 mg/kg p.o. QD", "value": 156.8, "unit": "g/L"},
      {"measurement": "Day 7 Hb", "setting": "[4]; Zibo 100 mg/kg p.o. QD", "value": 141.5, "unit": "g/L"},
      {"measurement": "Day 14 Hb", "setting": "[4]; Zibo 100 mg/kg p.o. QD", "value": 148.5, "unit": "g/L"},
      {"measurement": "Day 7 Hb", "setting": "[4]; Zibo 300 mg/kg p.o. QD", "value": 143.2, "unit": "g/L"},
      {"measurement": "Day 14 Hb", "setting": "[4]; Zibo 300 mg/kg p.o. QD", "value": 150.3, "unit": "g/L"},
      {"measurement": "Hb compared to vehicle", "setting": "[4]; zibotentan 30, 100 and 300 mg/kg, day 7", "value": "significant decrease"},
      {"measurement": "Hb compared to vehicle", "setting": "[4]; zibotentan 100 and 300 mg/kg, day 14", "value": "significant decrease"},
      {"measurement": "concentration at 24 h", "setting": "[5]; 30 mg/kg, Zibo 30 mg/kg p.o. QD 14 days, 24 hr post last dose", "value": "7.39 ± 10.4", "unit": "µM"},
      {"measurement": "concentration at 4 h", "setting": "[5]; 30 mg/kg, Zibo 30 mg/kg p.o. QD", "value": "53.8 ± 17.4", "unit": "µM"},
      {"measurement": "concentration at 24 h", "setting": "[5]; 30 mg/kg, Zibo 30 mg/kg p.o. QD, 24 hr post first dose", "value": "4.68 ± 3.93", "unit": "µM"},
      {"measurement": "concentration at 24 h", "setting": "[5]; 100 mg/kg, Zibo 100 mg/kg p.o. QD 14 days, 24 hr post last dose", "value": "39 ± 32.4", "unit": "µM"},
      {"measurement": "concentration at 4 h", "setting": "[5]; 100 mg/kg, Zibo 100 mg/kg p.o. QD", "value": "134 ± 43.8", "unit": "µM"},
      {"measurement": "concentration at 24 h", "setting": "[5]; 100 mg/kg, Zibo 100 mg/kg p.o. QD, 24 hr post first dose", "value": "39.1 ± 38.1", "unit": "µM"},
      {"measurement": "concentration at 24 h", "setting": "[5]; 300 mg/kg, Zibo 300 mg/kg p.o. QD 14 days, 24 hr post last dose", "value": "249 ± 193", "unit": "µM"},
      {"measurement": "concentration at 4 h", "setting": "[5]; 300 mg/kg, Zibo 300 mg/kg p.o. QD", "value": "247 ± 46", "unit": "µM"},
      {"measurement": "concentration at 24 h", "setting": "[5]; 300 mg/kg, Zibo 300 mg/kg p.o. QD, 24 hr post first dose", "value": "176 ± 108", "unit": "µM"}
    ]}
  ]
}
